From patent publication US20050112573A1, “Method of detecting toxic substance” (priority 2001, published 2005)

System: yeast genes (level of expressed mRNA)
Test: DNA chip analysis of expressed mRNA of yeast genes after 2 h culture with a toxic chemical substance
Type: cell-based, Saccharomyces cerevisiae S288C
Description: Yeast (Saccharomyces cerevtisiae S288C (α SUC2mal mel gap2 CUP1)) were cultured at 25° C. on YPD medium (yeast extract 1%, polypepton 2%, glucose 2%). One of toxic chemical substances was added to the cell at logarithmic growth phase, and the cell was further cultured for two hours. Cell was cultured without any chemical substance in the same condition, and was used as control. Concentrations of the chemical substances were defined to inhibit the growth of the yeast but not lead to death.
After the completion of cultivation, the culture was centrifuged to collect the cells. To the cells, sodium acetate buffer (50 mM sodium acetate, 10 mM EDTA, 1% SDS) was added, and the mixture was shaken at 65° C. for five minutes, followed by returning to room temperature, and obtaining the supernatant, which procedure was repeated two times. To the supernatant, ½ amount of a solution of phenol/chloroform was added, and the mixture was centrifuged to give a supernatant, which was added with an equal amount of chloroform, and the mixture was centrifuged to give a supernatant. To the supernatant, an equal amount of isopropanol containing 0.3 M sodium acetate was added, and the mixture was allowed to stand at room temperature for 30 minutes, after which the mixture was centrifuged to give a sediment of the whole RNAs. Seventy % ethanol was added to the sediment, and the mixture was again centrifuged to give a sediment, which was then dried and dissolved in water. mRNA was isolated from the whole RNAs as followings. In view of the fact that a poly A chain is attached to the 3′ terminus of mRNA, a polynucleotide having a poly T structure which was immobilized on the surface of latex beads was used to trap the mRNA, and then the mRNA was washed and eluted with spine column (Oligotex-dT30<Super>mRNA Purification Kit, Takara). Reverse transcription of the mRNA was conducted with a reverse transcriptase (Super Script II Reverse Transcriptase; catalogue No. 18064-014, GibcoBRL) using fluorescence-labeled nucleotides to give cDNAs that were introduced with Cy3-dUTP or Cy5-dUTP during the reverse transcription.
The labeled cDNAs were dissolved in TE buffer (10 mM Tris-HCl/1 mM EDTA, pH8.0), and the solution was dropped on the DNA chip containing the whole genes of yeast (DNA Chip Research Inc. Japan) so that the cDNAs were hybridized on the DNA chip at 65° C. for over 12 hours. The fluoresces intensity of the DNA chip was read with a scanner, and the ratio relative to the fluorescence intensity resulting from the absence of chemical substance was estimated as the following, which is shown in Tables 1 to 9: [formula]
In the Tables, “Intensity” indicated in the rightmost column is a value of the level of expressed mRNA of each gene in control cells as divided by the average level of the expressions of the whole genes.

HgCl2 [(3)]
The level of expressed mRNA in the presence of chemical substance/ (yeast gene YKL086W, ratio to control without chemical): 2.4 | The level of expressed mRNA in the presence of chemical substance/The level of expressed mRNA in the absence of chemical substance (yeast gene YKL096W): 8.1 | The level of expressed mRNA in the presence of chemical substance/ (yeast gene YKL151C, ratio to control without chemical substance, 2 h culture): 1.7 | The level of expressed mRNA in the presence of chemical substance/ (yeast gene YKL153W, ratio to control without chemical substance, 2 h culture): 2.0 | The level of expressed mRNA in the presence of chemical substance/The level of expressed mRNA in the absence of chemical substance (yeast gene YKL165C): 1.1 | The level of expressed mRNA in the presence of chemical substance/The level of expressed mRNA in the absence of chemical substance (yeast gene YKL193C): 1.1 | The level of expressed mRNA in the presence of chemical substance/ (yeast gene YKL195W, ratio to control without chemical substance, 2 h culture): 0.4 | The level of expressed mRNA in the presence of chemical substance/in the absence of chemical substance (yeast gene YKR009C): 1.5 | The level of expressed mRNA in the presence of chemical substance/ (yeast gene YKR091W, ratio to control without chemical): 0.9 | The level of expressed mRNA in the presence of chemical substance/ (yeast gene YLR054C, ratio to control without chemical substance, 2 h culture): 0.4 | The level of expressed mRNA in the presence of chemical substance/The level of expressed mRNA in the absence of chemical substance (yeast gene YLR120C): 2.4 | The level of expressed mRNA in the presence of chemical substance/The level of expressed mRNA in the absence of chemical substance (yeast gene YLR136C): 0.6 | The level of expressed mRNA in the presence of chemical substance/ (yeast gene YLR149C, ratio to control without chemical substance, 2 h culture): 3.4 | The level of expressed mRNA in the presence of chemical substance/ (yeast gene YLR152C, ratio to control without chemical substance, 2 h culture): 1.1 | The level of expressed mRNA in the presence of chemical substance/The level of expressed mRNA in the absence of chemical substance (yeast gene YLR178C): 8.8 | The level of expressed mRNA in the presence of chemical substance/ (yeast gene YLR194C, ratio to control without chemical): 1.3 | The level of expressed mRNA in the presence of chemical substance/The level of expressed mRNA in the absence of chemical substance (yeast gene YLR250W): 1.0 | The level of expressed mRNA in the presence of chemical substance/ (yeast gene YLR324W, ratio to control without chemical substance, 2 h culture): 0.9 | The level of expressed mRNA in the presence of chemical substance/The level of expressed mRNA in the absence of chemical substance (yeast gene YLR327C): 14.4 | The level of expressed mRNA in the presence of chemical substance/ (yeast gene YLR350W, ratio to control without chemical substance, 2 h culture): 3.2 | The level of expressed mRNA in the presence of chemical substance/in the absence of chemical substance (yeast gene YLR351C): 1.3 | The level of expressed mRNA in the presence of chemical substance/The level of expressed mRNA in the absence of chemical substance (yeast gene YLR356W): 4.9 | The level of expressed mRNA in the presence of chemical substance/The level of expressed mRNA in the absence of chemical substance (yeast gene YLR362W): 1.0 | The level of expressed mRNA in the presence of chemical substance/in the absence of chemical substance (yeast gene YLR375W): 0.9 | The level of expressed mRNA in the presence of chemical substance/ (yeast gene YLR387C, ratio to control without chemical substance, 2 h culture): 0.8 | The level of expressed mRNA in the presence of chemical substance/The level of expressed mRNA in the absence of chemical substance (yeast gene YLR391W): 2.9 | The level of expressed mRNA in the presence of chemical substance/The level of expressed mRNA in the absence of chemical substance (yeast gene YLR429W): 0.6 | The level of expressed mRNA in the presence of chemical substance/ (yeast gene YLR460C, ratio to control without chemical substance, 2 h culture): 2.0 | The level of expressed mRNA in the presence of chemical substance/ (yeast gene YML117W, ratio to control without chemical substance, 2 h culture): 0.9 | The level of expressed mRNA in the presence of chemical substance/The level of expressed mRNA in the absence of chemical substance (yeast gene YMR004W): 1.3 | The level of expressed mRNA in the presence of chemical substance/ (yeast gene YMR009W, ratio to control without chemical substance, 2 h culture): 0.5 | The level of expressed mRNA in the presence of chemical substance/ (yeast gene YMR067C, ratio to control without chemical substance, 2 h culture): 1.1 | The level of expressed mRNA in the presence of chemical substance/ (yeast gene YMR090W, ratio to control without chemical substance, 2 h culture): 2.3 | The level of expressed mRNA in the presence of chemical substance/The level of expressed mRNA in the absence of chemical substance (yeast gene YMR094W): 1.3 | The level of expressed mRNA in the presence of chemical substance/ (yeast gene YMR095C, ratio to control without chemical): 1.6 | The level of expressed mRNA in the presence of chemical substance/ (yeast gene YMR097C, ratio to control without chemical substance, 2 h culture): 0.7 | The level of expressed mRNA in the presence of chemical substance/ (yeast gene YMR102C, ratio to control without chemical substance, 2 h culture): 1.1 | The level of expressed mRNA in the presence of chemical substance/The level of expressed mRNA in the absence of chemical substance (yeast gene YMR104C): 2.2 | The level of expressed mRNA in the presence of chemical substance/ (yeast gene YMR107W, ratio to control without chemical substance, 2 h culture): 1.7 | The level of expressed mRNA in the presence of chemical substance/ (yeast gene YMR180C, ratio to control without chemical substance, 2 h culture): 1.0 | The level of expressed mRNA in the presence of chemical substance/ (yeast gene YMR184W, ratio to control without chemical substance, 2 h culture): 1.0 | The level of expressed mRNA in the presence of chemical substance/ (yeast gene YMR191W, ratio to control without chemical substance, 2 h culture): 1.9 | The level of expressed mRNA in the presence of chemical substance/The level of expressed mRNA in the absence of chemical substance (yeast gene YMR219W): 1.0 | The level of expressed mRNA in the presence of chemical substance/The level of expressed mRNA in the absence of chemical substance (yeast gene YMR226C): 1.4 | The level of expressed mRNA in the presence of chemical substance/in the absence of chemical substance (yeast gene YMR267W): 0.7 | The level of expressed mRNA in the presence of chemical substance/The level of expressed mRNA in the absence of chemical substance (yeast gene YMR275C): 1.2 | The level of expressed mRNA in the presence of chemical substance/The level of expressed mRNA in the absence of chemical substance (yeast gene YMR276W): 1.5 | The level of expressed mRNA in the presence of chemical substance/in the absence of chemical substance (yeast gene YMR278W): 1.4 | The level of expressed mRNA in the presence of chemical substance/in the absence of chemical substance (yeast gene YMR293C): 1.6 | The level of expressed mRNA in the presence of chemical substance/ (yeast gene YMR295C, ratio to control without chemical substance, 2 h culture): 1.2 | The level of expressed mRNA in the presence of chemical substance/The level of expressed mRNA in the absence of chemical substance (yeast gene YMR314W): 0.9 | The level of expressed mRNA in the presence of chemical substance/ (yeast gene YMR316W, ratio to control without chemical substance, 2 h culture): 1.1 | The level of expressed mRNA in the presence of chemical substance/The level of expressed mRNA in the absence of chemical substance (yeast gene YNL006W): 1.3 | The level of expressed mRNA in the presence of chemical substance/The level of expressed mRNA in the absence of chemical substance (yeast gene YNL007C): 5.1 | The level of expressed mRNA in the presence of chemical substance/ (yeast gene YNL044W, ratio to control without chemical substance, 2 h culture): 2.3
